24 compounds from US10040781B2, “Tank-binding kinase inhibitor compounds” (Gilead Sciences, Inc., priority 2014, dated 2018) can be followed below.

The target in test [1] is IKKε (Homo sapiens (Human), UniProt Q14164). The test can be described thus: IKKε TR-FRET enzymatic assay. The format is biochemical.
The target of test [2] is TBK1 (Homo sapiens (Human), UniProt Q9UHD2). As to the kind of experiment: TBK1 TR-FRET enzymatic assay.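 Further: phosphorylation of a biotinylated Ser/Thr peptide by purified full-length recombinant TBK1, read by TR-FRET after 240 min at 25 °C, IC50 is the geometric mean of at least four runs.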 On the technique in general: Time-resolved FRET reads energy transfer from a long-lived donor to a nearby acceptor.
Sequence of TBK1 (Q9UHD2 whole entry): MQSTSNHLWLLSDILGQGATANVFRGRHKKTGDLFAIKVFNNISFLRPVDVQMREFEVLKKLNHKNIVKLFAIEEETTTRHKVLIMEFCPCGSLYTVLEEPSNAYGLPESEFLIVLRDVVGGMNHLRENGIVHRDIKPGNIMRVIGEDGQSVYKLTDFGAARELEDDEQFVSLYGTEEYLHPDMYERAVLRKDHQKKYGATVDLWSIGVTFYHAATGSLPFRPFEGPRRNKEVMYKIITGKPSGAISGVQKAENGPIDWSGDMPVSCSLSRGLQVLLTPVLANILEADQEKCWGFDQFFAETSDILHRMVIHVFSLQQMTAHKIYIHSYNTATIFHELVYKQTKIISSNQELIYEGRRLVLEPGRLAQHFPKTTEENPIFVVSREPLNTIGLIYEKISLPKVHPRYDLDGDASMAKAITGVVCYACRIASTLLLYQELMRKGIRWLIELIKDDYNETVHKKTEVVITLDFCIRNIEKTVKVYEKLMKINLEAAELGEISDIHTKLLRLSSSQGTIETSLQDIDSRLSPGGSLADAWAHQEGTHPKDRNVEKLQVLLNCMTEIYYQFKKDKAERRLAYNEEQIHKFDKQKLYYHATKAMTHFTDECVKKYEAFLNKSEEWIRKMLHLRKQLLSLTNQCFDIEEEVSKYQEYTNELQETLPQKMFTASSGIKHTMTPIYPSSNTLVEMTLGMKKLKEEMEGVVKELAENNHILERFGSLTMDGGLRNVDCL
The target of test [3] is hJAK2 (Homo sapiens (Human), UniProt O60674). The test can be described thus: hJAK2 LANCE TR-FRET enzymatic assay. The class given is biochemical. Particulars: read-out: JAK2 IC50.
Sequence of hJAK2 (O60674 whole entry): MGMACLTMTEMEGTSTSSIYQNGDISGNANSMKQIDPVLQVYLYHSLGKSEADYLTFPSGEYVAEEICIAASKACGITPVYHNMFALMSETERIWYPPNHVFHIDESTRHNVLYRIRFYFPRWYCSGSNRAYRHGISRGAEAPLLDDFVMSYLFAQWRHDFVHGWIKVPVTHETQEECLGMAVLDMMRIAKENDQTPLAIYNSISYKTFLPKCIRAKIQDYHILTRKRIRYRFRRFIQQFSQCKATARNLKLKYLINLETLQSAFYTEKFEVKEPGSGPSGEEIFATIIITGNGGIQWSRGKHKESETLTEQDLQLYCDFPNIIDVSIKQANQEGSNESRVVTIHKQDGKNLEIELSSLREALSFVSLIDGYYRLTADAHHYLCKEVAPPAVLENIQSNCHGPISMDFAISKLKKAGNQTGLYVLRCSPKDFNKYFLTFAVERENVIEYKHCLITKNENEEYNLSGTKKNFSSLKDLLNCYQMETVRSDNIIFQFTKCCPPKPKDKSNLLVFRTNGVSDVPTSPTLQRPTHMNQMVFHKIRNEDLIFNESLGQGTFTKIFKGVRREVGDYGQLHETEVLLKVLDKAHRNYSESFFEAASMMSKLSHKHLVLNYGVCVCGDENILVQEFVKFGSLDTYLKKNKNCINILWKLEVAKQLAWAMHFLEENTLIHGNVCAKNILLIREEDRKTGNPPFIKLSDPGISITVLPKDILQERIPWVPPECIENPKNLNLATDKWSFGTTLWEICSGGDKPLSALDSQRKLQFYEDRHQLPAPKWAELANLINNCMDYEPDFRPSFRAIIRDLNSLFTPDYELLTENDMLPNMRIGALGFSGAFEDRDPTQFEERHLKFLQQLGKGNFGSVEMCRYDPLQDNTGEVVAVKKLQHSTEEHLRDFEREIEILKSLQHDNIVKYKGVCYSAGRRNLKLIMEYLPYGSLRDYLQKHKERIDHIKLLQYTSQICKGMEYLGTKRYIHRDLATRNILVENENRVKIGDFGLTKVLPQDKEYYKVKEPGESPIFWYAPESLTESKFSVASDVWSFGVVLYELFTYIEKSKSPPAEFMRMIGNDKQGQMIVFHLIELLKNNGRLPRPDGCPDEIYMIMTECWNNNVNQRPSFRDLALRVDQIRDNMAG

As a reminder, the IC50 is the midpoint of a concentration-inhibition curve.

Where two headings read alike, the source gives them in different places. Where only a bound is given, the exact number is not on record here.

Sequence of IKKε (Q14164 whole entry): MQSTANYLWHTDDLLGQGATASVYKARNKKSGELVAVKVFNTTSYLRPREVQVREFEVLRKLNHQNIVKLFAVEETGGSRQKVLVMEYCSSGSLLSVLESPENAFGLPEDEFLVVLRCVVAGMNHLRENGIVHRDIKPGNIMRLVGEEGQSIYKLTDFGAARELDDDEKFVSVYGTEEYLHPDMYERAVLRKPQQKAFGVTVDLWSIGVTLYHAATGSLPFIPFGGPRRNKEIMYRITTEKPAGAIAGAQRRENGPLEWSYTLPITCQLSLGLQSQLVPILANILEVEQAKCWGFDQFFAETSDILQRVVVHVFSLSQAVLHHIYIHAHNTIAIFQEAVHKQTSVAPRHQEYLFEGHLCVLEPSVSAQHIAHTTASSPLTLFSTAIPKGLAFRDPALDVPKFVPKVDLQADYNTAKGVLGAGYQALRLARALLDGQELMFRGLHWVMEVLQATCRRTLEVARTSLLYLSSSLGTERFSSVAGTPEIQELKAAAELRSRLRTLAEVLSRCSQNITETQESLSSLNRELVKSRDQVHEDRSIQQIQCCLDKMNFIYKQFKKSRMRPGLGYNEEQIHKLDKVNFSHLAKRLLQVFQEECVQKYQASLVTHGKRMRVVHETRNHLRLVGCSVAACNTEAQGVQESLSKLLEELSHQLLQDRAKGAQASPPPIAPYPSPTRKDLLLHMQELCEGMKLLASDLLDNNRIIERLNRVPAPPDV

`N#Cc1cc(-c2ncnc(Nc3ccc(N4CCN(C5COC5)CC4)cc3)n2)ccc1O[C@@H]1CCN(C(=O)CO)C[C@@H]1F` (racemic) [Example 218, 2-((cis-3-fluoro-1-(2-hydroxyacetyl)piperidin-4-yl)oxy)-5-(4-((4-(4-(oxetan-3-yl)piperazin-1-yl)phenyl)amino)-1,3,5-triazin-2-yl)benzonitrile]: in test [1] (read-out: IKKe IC50), the IC50 was 3 nM.

On to `N#Cc1cc(-c2ncnc(Nc3ccc(N4CCN(C5COC5)CC4)cc3)n2)ccc1OC1CC[S+]([O-])CC1` (single isomer, unassigned) [Example 25, 5-(4-((4-(4-(oxetan-3-yl)piperazin-1-yl)phenyl)amino)-1,3,5-triazin-2-yl)-2-((1-oxidotetrahydro-2H-thiopyran-4-yl)oxy)benzonitrile], for which the IC50 in test [2] (TBK1 IC50) worked out at 21 nM; in test [1] (IKKe IC50) it was 73 nM.

Consider `N#Cc1cc(-c2ncnc(Nc3ccc(N4CCN(C5COC5)CC4)cc3)n2)ccc1OC1CC[S+]([O-])CC1` (single isomer, unassigned) [Example 26, 5-(4-((4-(4-(oxetan-3-yl)piperazin-1-yl)phenyl)amino)-1,3,5-triazin-2-yl)-2-((1-oxidotetrahydro-2H-thiopyran-4-yl)oxy)benzonitrile], for which the IC50 was 6 nM in test [2] (TBK1 IC50) and 23 nM in test [1] (IKKe IC50).

`COC(=O)N1CC[C@@H](Oc2ccc(-c3ncnc(Nc4ccc(N5CCN(C6COC6)CC5)cc4)n3)cc2C#N)C1` [Example 2, (R)-methyl 3-(2-cyano-4-(4-((4-(4-(oxetan-3-yl)piperazin-1-yl)phenyl)amino)-1,3,5-triazin-2-yl)phenoxy)pyrrolidine-1-carboxylate]: the IC50 turned out to be 37 nM in test [2] and 148 nM in test [1] (read-out: IKKe IC50).

Turning to `CNC(=O)c1ccc(Nc2ncnc(-c3ccc(OC4CCOCC4)c(C#N)c3)n2)cc1` [Example 14, 4-((4-(3-cyano-4-((tetrahydro-2H-pyran-4-yl)oxy)phenyl)-1,3,5-triazin-2-yl)amino)-N-methylbenzamide], the IC50 was determined as 4 nM in test [2] and 21 nM in test [1] (read-out: IKKe IC50).

On to `N#Cc1cc(-c2ncnc(Nc3ccc(N4CCN(C5COC5)CC4)cc3)n2)ccc1O[C@@H]1CCOC1` [Example 29, (R)-5-(4-((4-(4-(oxetan-3-yl)piperazin-1-yl)phenyl)amino)-1,3,5-triazin-2-yl)-2-((tetrahydrofuran-3-yl)oxy)benzonitrile], for which the values for the IC50 in test [2] and in test [1] (read-out: IKKe IC50) were 5 nM and 32 nM, respectively.

For the compound `N#Cc1cc(-c2ncnc(Nc3ccc(N4CCOCC4)cc3)n2)ccc1NC(=O)[C@@H]1CCCN1` [Example 37, (S)—N-(2-cyano-4-(4-((4-morpholinophenyl)amino)-1,3,5-triazin-2-yl)phenyl)pyrrolidine-2-carboxamide], the values for the IC50 in test [2] and in test [1] (read-out: IKKe IC50) were 203 nM and 305 nM, respectively.

Take `COc1cc(Nc2ncnc(-c3ccc(OC4CCOCC4)c(C#N)c3)n2)cc(F)c1N1CCN(C2COC2)CC1` [Example 61, 5-(4-((3-fluoro-5-methoxy-4-(4-(oxetan-3-yl)piperazin-1-yl)phenyl)amino)-1,3,5-triazin-2-yl)-2-((tetrahydro-2H-pyran-4-yl)oxy)benzonitrile]: the IC50 in test [2] amounted to 2 nM; in test [1] (read-out: IKKe IC50), 7 nM.

For `N#Cc1cc(-c2ncnc(Nc3ccc(N4CCN(C(=O)CO)CC4)cc3)n2)ccc1OC1CCOCC1` [Example 64, 5-(4-((4-(4-(2-hydroxyacetyl)piperazin-1-yl)phenyl)amino)-1,3,5-triazin-2-yl)-2-((tetrahydro-2H-pyran-4-yl)oxy)benzonitrile], the IC50 in test [2] is 1 nM; in test [1] (read-out: IKKe IC50), 5 nM.

For the compound `N#Cc1cc(-c2ncnc(Nc3ccc(N4CCO[C@@H](CO)C4)cc3)n2)ccc1OC1CCOCC1` [Example 107, (R)-5-(4-((4-(2-(hydroxymethyl)morpholino)phenyl)amino)-1,3,5-triazin-2-yl)-2-((tetrahydro-2H-pyran-4-yl)oxy)benzonitrile], the IC50 in test [1] (read-out: IKKe IC50) was 3 nM.

Turning to `N#CCC(=O)N1CC[C@H](Oc2ccc(-c3ncnc(Nc4ccc(N5CCN(C6COC6)CC5)cc4)n3)cc2C#N)C(F)(F)C1` [Example 160, (S)-2-((1-(2-cyanoacetyl)-3,3-difluoropiperidin-4-yl)oxy)-5-(4-((4-(4-(oxetan-3-yl)piperazin-1-yl)phenyl)amino)-1,3,5-triazin-2-yl)benzonitrile], the IC50 in test [2] turned out to be 3 nM; in test [1] (read-out: IKKe IC50) it was 2 nM.

On to `N#Cc1cc(-c2ncnc(Nc3ccc(N4CCN(C5COC5)CC4)cc3)n2)ccc1O[C@H]1CCN(C(=O)c2cnn[nH]2)CC1(F)F` [Example 165, (S)-2-((3,3-difluoro-1-(1H-1,2,3-triazole-5-carbonyl)piperidin-4-yl)oxy)-5-(4-((4-(4-(oxetan-3-yl)piperazin-1-yl)phenyl)amino)-1,3,5-triazin-2-yl)benzonitrile], for which the IC50 came out at 2 nM in test [2] and 1 nM in test [1] (read-out: IKKe IC50).

Regarding `N#Cc1cc(-c2ncnc(Nc3ccc(N4CCN(C5COC5)CC4)cc3)n2)ccc1OC1CCN(C(=O)c2ncc[nH]2)CC1` [Example 189, 2-((1-(1H-imidazole-2-carbonyl)piperidin-4-yl)oxy)-5-(4-((4-(4-(oxetan-3-yl)piperazin-1-yl)phenyl)amino)-1,3,5-triazin-2-yl)benzonitrile], the IC50 in test [2] was found to be 5 nM; in test [1] (read-out: IKKe IC50) it was 19 nM.

On to `CN1CC2(CCN(c3ccc(-c4ncnc(Nc5ccc(N6CCN(C7COC7)CC6)cc5)n4)cc3C#N)CC2)C1` [Example 209, 2-(2-methyl-2,7-diazaspiro[3.5]nonan-7-yl)-5-(4-((4-(4-(oxetan-3-yl)piperazin-1-yl)phenyl)amino)-1,3,5-triazin-2-yl)benzonitrile], for which the 50% inhibitory concentration (IC50) in test [2] was 49 nM; in test [1] (read-out: IKKe IC50), 213 nM.

For `N#Cc1cc(-c2ncnc(Nc3ccc(N4CCN(C5COC5)CC4)cc3)n2)ccc1O[C@H]1CCOC1` [Example 216, (S)-5-(4-((4-(4-(oxetan-3-yl)piperazin-1-yl)phenyl)amino)-1,3,5-triazin-2-yl)-2-((tetrahydrofuran-3-yl)oxy)benzonitrile], the values for the 50% inhibitory concentration (IC50) in test [2] and in test [1] (read-out: IKKe IC50) were 13 nM and 42 nM, respectively.

`N#Cc1cc(-c2ncnc(Nc3ccc(N4CCN(C5COC5)CC4)cc3)n2)ccc1O[C@@H]1CCN(C(=O)CO)C[C@@H]1F` [Example 224, 2-(((3S,4R)-3-fluoro-1-(2-hydroxyacetyl)piperidin-4-yl)oxy)-5-(4-((4-(4-(oxetan-3-yl)piperazin-1-yl)phenyl)amino)-1,3,5-triazin-2-yl)benzonitrile]: the IC50 in test [1] (read-out: IKKe IC50) came out at 23 nM.

As to `N#Cc1cc(-c2ncnc(Nc3ccc(N4CCN(C5COC5)CC4)cc3)n2)ccc1O[C@@H]1CCN(C(=O)CO)C[C@H]1F` [Example 235, 2-(((3R,4R)-3-fluoro-1-(2-hydroxyacetyl)piperidin-4-yl)oxy)-5-(4-((4-(4-(oxetan-3-yl)piperazin-1-yl)phenyl)amino)-1,3,5-triazin-2-yl)benzonitrile], the IC50 in test [1] (read-out: IKKe IC50) came to 5 nM.

On to `C[C@H]1CN(C2COC2)CCN1c1ccc(Nc2ncnc(-c3ccc(O[C@H]4CCN(C(=O)c5cnn[nH]5)CC4(F)F)c(C#N)c3)n2)cc1` [Example 258, 2-(((S)-3,3-difluoro-1-(1H-1,2,3-triazole-5-carbonyl)piperidin-4-yl)oxy)-5-(4-((4-((S)-2-methyl-4-(oxetan-3-yl)piperazin-1-yl)phenyl)amino)-1,3,5-triazin-2-yl)benzonitrile], for which the values for the IC50 in test [2] and in test [1] (read-out: IKKe IC50) were 3 nM and 1 nM, respectively.

For `N#Cc1cc(-c2ncnc(Nc3ccc(C4CCN(C5COC5)CC4)cc3)n2)ccc1OC1CCS(=O)(=O)CC1` [Example 270, 2-((1,1-dioxidotetrahydro-2H-thiopyran-4-yl)oxy)-5-(4-((4-(1-(oxetan-3-yl)piperidin-4-yl)phenyl)amino)-1,3,5-triazin-2-yl)benzonitrile], in test [1] (read-out: IKKe IC50), the IC50 was 43 nM.

For `CS(=O)(=O)OC1CN(c2ccc(-c3ncnc(Nc4ccc(N5CCN(C6COC6)CC5)cc4)n3)cc2C#N)C1` [Example 276, 1-(2-cyano-4-(4-((4-(4-(oxetan-3-yl)piperazin-1-yl)phenyl)amino)-1,3,5-triazin-2-yl)phenyl)azetidin-3-yl methanesulfonate], the IC50 in test [2] is 23 nM; in test [1] (read-out: IKKe IC50), 38 nM.

For `C[C@H]1OC(=O)N[C@@H]1C(=O)N1CC[C@H](Oc2ccc(-c3ncnc(Nc4ccc(N5CCN(C6COC6)CC5)cc4)n3)cc2C#N)[C@H](F)C1` [Example 523, 2-(((3R,4S)-3-fluoro-1-((4S,5R)-5-methyl-2-oxooxazolidine-4-carbonyl)piperidin-4-yl)oxy)-5-(4-((4-(4-(oxetan-3-yl)piperazin-1-yl)phenyl)amino)-1,3,5-triazin-2-yl)benzonitrile], the IC50 in test [2] is 10 nM; in test [3], 811 nM.

Take `COCCNc1ccc(Nc2ncnc(-c3ccc(O[C@H]4CCN(C(=O)[C@H](C)O)C[C@H]4F)c(C#N)c3)n2)cn1` [Example 543, 2-(((3R,4S)-3-fluoro-1-((S)-2-hydroxypropanoyl)piperidin-4-yl)oxy)-5-(4-((6-((2-methoxyethyl)amino)pyridin-3-yl)amino)-1,3,5-triazin-2-yl)benzonitrile]: the IC50 was 12 nM in test [2] and ≥ 1000 nM in test [3].

On to `N#Cc1cc(-c2ncnc(Nc3ccc(N4CCN(C5COC5)CC4)cc3)n2)ccc1OCCCN1CCCC1=O` [Example 600, 5-(4-((4-(4-(oxetan-3-yl)piperazin-1-yl)phenyl)amino)-1,3,5-triazin-2-yl)-2-(3-(2-oxopyrrolidin-1-yl)propoxy)benzonitrile], for which the IC50 in test [2] was 517 nM; in test [3], ≥ 1000 nM.

With `CN1CCN(C(=O)N(C)CCOc2ccc(-c3ncnc(Nc4ccc(N5CCN(C6COC6)CC5)cc4)n3)cc2C#N)CC1` [Example 603, N-(2-(2-cyano-4-(4-((4-(4-(oxetan-3-yl)piperazin-1-yl)phenyl)amino)-1,3,5-triazin-2-yl)phenoxy)ethyl)-N,4-dimethylpiperazine-1-carboxamide], the values for the IC50 in test [2] and in test [3] were 466 nM and ≥ 1000 nM, respectively.
